# Results as given in patent publication US11725000B2, “Apoptosis inhibitors” (National Institute of Biological Sciences, Beijing, priority 2017, dated 2023).
# Tested on: U2OS_Bim cells
# Assay: Apoptosis inhibition assay (Bim-induced apoptosis, cell viability by ATP level)
# Type: cell-based
# Settings: not given
# Description: A chemical library containing 200000 compounds was screened according to the following procedure: U2OS_Bim cells (a cell line in which the BH3-only protein Bim can be inducibly expressed by the addition of Doxycycline to the growth medium)^[2] were plated in 384-well plates with 30 μl medium at a density of 500 cells per well. 16 hrs after plating, test compounds were transferred from stock plates to the assay plates with the cultured cells. Positive control (20 μM zVAD) and negative control (DMSO) were added to every plate. 1 hr after compound treatment, 0.1 ug/mL Doxycyclin (DOX) was added to induce the expression of the Bim protein. After 24 hrs, cell viability was determined by measuring the ATP levels using a Cell Titer-Glo kit (Promega, G7570) according to the manufacturer's instructions. Luminescence was recorded with a PerkinElmer EnSpire Multimode Plate Reader. Compounds that could rescue cell viability to a level above 50% were selected; these compounds were then screened a second time for assurance.
# U2OS_Bim or U2OS_tBid cells were plated at a density of 3000 cells per well in 96-well plates. 24 hrs later, cells were treated with experimental compounds, zVAD (positive control) and DMSO (Negative control) for one hour. The cells were then treated with 0.1 μg/mL DOX to trigger apoptosis. 24 hours after the addition of DOX, cell viability was determined by measuring the ATP levels using a Cell Titer-Glo kit. Cell survival rate was calculated.
# U2OS_Bim cells (a U2OS stable cell line transfected with a Bim transgene) were cultured in DMEM culture medium (Gibico). On day one, U2OS_Bim cells were plated in 96-well plates at a density of 3000 cells per well. On day two, cells were pretreated with compounds for one hour. Then cells were treated with 0.1 μg/mL doxycycline (DOX) to trigger apoptosis. 24 hours after DOX treatment, cell viability was determined by measuring the ATP levels using the Cell Titer-Glo kit (G7570, Promega), according to the manufacturer's instructions. Luminescence was recorded with a PerkinElmer EnSpire Multimode Plate Reader. Survived cells were normalized to those cells treated with DMSO. zVAD (20 μM) was used as a positive control. Activity data for compounds […] are represented as means f standard deviation of duplicates; activity data for compounds 187-274 are estimated based on preliminary results.
row,SMILES,EC50
1,"CS(=O)(=O)c1nc(-c2cccc(OCc3ccccc3)c2)cc(C(F)(F)F)n1 [Compound 75, 4-(3-(benzyloxy)phenyl)-2-(methylsulfonyl)-6-(trifluoromethyl)pyrimidine]",1 to 20 µM

# Same assay, conditions: U2OS_Bim cells; means of duplicates; numbering of Tables 4a/4b; read-out: EC50
row,EC50,SMILES
1,1 to 10 µM,"CS(=O)(=O)c1nc(-c2cccc(F)c2)cc(C(F)(F)F)n1 [Compound 44, 4-(3-fluorophenyl)-2-(methylsulfonyl)-6-(trifluoromethyl)pyrimidine]"
2,1 to 10 µM,"Cc1cccc(-c2cc(C(F)(F)F)nc(S(C)(=O)=O)n2)c1 [Compound 47, 2-(methylsulfonyl)-4-(m-tolyl)-6-(trifluoromethyl)pyrimidine]"
3,< 100 µM,"CS(=O)(=O)c1nc(-c2cccc(O)c2)cc(C(F)(F)F)n1 [Compound 50, 3-(2-(methylsulfonyl)-6-(trifluoromethyl)pyrimidin-4-yl)phenol]"
4,< 100 µM,COc1cccc(-c2cc(C(F)(F)F)nc(S(C)(=O)=O)n2)c1 [Compound 52]
5,1 to 20 µM,"COc1ccc(-c2cc(C(F)(F)F)nc([S+](C)[O-])n2)cc1 (centres unmarked) [Compound 54, 4-(4-methoxyphenyl)-2-(methylsulfinyl)-6-(trifluoromethyl)pyrimidine]"
6,1 to 20 µM,"CS(=O)(=O)c1nc(-c2cccc(C#N)c2)cc(C(F)(F)F)n1 [Compound 56, 3-(2-(methylsulfonyl)-6-(trifluoromethyl)pyrimidin-4-yl)benzonitrile]"
7,1 to 10 µM,"COC(=O)c1ccccc1-c1cc(C(F)(F)F)nc([S+](C)[O-])n1 (centres unmarked) [Compound 59, methyl 2-(2-(methylsulfinyl)-6-(trifluoromethyl)pyrimidin-4-yl)benzoate]"
8,< 100 µM,"COC(=O)c1cccc(-c2cc(C(F)(F)F)nc(S(C)(=O)=O)n2)c1 [Compound 60, methyl 3-(2-(methylsulfonyl)-6-(trifluoromethyl)pyrimidin-4-yl)benzoate]"
9,< 100 µM,"COC(=O)c1ccc(-c2cc(C(F)(F)F)nc([S+](C)[O-])n2)cc1 (centres unmarked) [Compound 62, methyl 4-(2-(methylsulfinyl)-6-(trifluoromethyl)pyrimidin-4-yl)benzoate]"
10,< 100 µM,"C[S+]([O-])c1nc(-c2ccc(C(=O)O)cc2)cc(C(F)(F)F)n1 (centres unmarked) [Compound 65, 4-(2-(methylsulfinyl)-6-(trifluoromethyl)pyrimidin-4-yl)benzoic acid]"
11,< 100 µM,"C#CCOc1cccc(-c2cc(C(F)(F)F)nc(S(C)(=O)=O)n2)c1 [Compound 71, 2-(methylsulfonyl)-4-(3-(prop-2-yn-1-yloxy)phenyl)-6-(trifluoromethyl) pyrimidine]"
12,1 to 10 µM,"C#CCOc1cccc(-c2cc(C(F)(F)F)nc([S+](C)[O-])n2)c1 (centres unmarked) [Compound 72, 2-(methylsulfinyl)-4-(3-(prop-2-yn-1-yloxy)phenyl)-6-(trifluoromethyl) pyrimidine]"
13,< 100 µM,"C[S+]([O-])c1nc(-c2cccc(Oc3ccccc3)c2)cc(C(F)(F)F)n1 (centres unmarked) [Compound 74, 2-(methylsulfinyl)-4-(3-phenoxyphenyl)-6-(trifluoromethyl)pyrimidine]"

# The next lines start with the compound.
row,SMILES,EC50
1,"CS(=O)(=O)c1nc(-c2cccs2)cc(-n2cccn2)n1 [Compound 36, 2-(methylsulfonyl)-4-(1H-pyrazol-1-yl)-6-(thiophen-2-yl)pyrimidine]",1 to 10 µM
2,"CS(=O)(=O)c1nc(-c2cccs2)cc(-c2cccs2)n1 [Compound 37, 2-(methylsulfonyl)-4,6-di(thiophen-2-yl)pyrimidine]",1 to 10 µM
3,"CS(=O)(=O)c1nc(-c2cccs2)cc(N2CCCC2=O)n1 [Compound 38, 1-(2-(methylsulfonyl)-6-(thiophen-2-yl)pyrimidin-4-yl)pyrrolidin-2-one]",< 100 µM
4,"CS(=O)(=O)c1nc(-c2cccs2)cc(-n2ccccc2=O)n1 [Compound 39, 1-(2-(methylsulfonyl)-6-(thiophen-2-yl)pyrimidin-4-yl)pyridine-2 (1H)-one]",< 100 µM
5,"CS(=O)(=O)c1nc(-c2cccs2)cc(N2CCOCC2)n1 [Compound 40, 4-(2-(methylsulfonyl)-6-(thiophen-2-yl)pyrimidin-4-yl)morpholine]",< 100 µM
6,"CS(=O)(=O)c1nc(N=[N+]=[N-])cc(-c2cccs2)n1 [Compound 41, 4-azido-2-(methylsulfonyl)-6-(thiophen-2-yl)pyrimidine]",< 100 µM
7,"CN(C)c1cc(-c2cccs2)nc([S+](C)[O-])n1 (centres unmarked) [Compound 42, N,N-dimethyl-2-(methylsulfinyl)-6-(thiophen-2-yl)pyrimidin-4-amine]",< 100 µM
8,"CS(=O)(=O)c1nc(-c2ccccc2F)cc(C(F)(F)F)n1 [Compound 43, 4-(2-fluorophenyl)-2-(methylsulfonyl)-6-(trifluoromethyl)pyrimidine]",1 to 20 µM
9,"CS(=O)(=O)c1nc(-c2ccc(F)cc2)cc(C(F)(F)F)n1 [Compound 45, 4-(4-fluorophenyl)-2-(methylsulfonyl)-6-(trifluoromethyl)pyrimidine]",1 to 10 µM
10,"Cc1ccccc1-c1cc(C(F)(F)F)nc(S(C)(=O)=O)n1 [Compound 46, 2-(methylsulfonyl)-4-(o-tolyl)-6-(trifluoromethyl)pyrimidine]",1 to 20 µM
11,"Cc1ccc(-c2cc(C(F)(F)F)nc(S(C)(=O)=O)n2)cc1 [Compound 48, 2-(methylsulfonyl)-4-(p-tolyl)-6-(trifluoromethyl)pyrimidine]",< 100 µM
12,"C#Cc1ccc(-c2cc(C(F)(F)F)nc(S(C)(=O)=O)n2)cc1 [Compound 49, 4-(4-ethynylphenyl)-2-(methylsulfonyl)-6-(trifluoromethyl)pyrimidine]",< 100 µM
13,"COc1ccccc1-c1cc(C(F)(F)F)nc(S(C)(=O)=O)n1 [Compound 51, 4-(2-methoxyphenyl)-2-(methylsulfonyl)-6-(trifluoromethyl)pyrimidine]",1 to 10 µM
14,"COc1ccc(-c2cc(C(F)(F)F)nc(S(C)(=O)=O)n2)cc1 [Compound 53, 4-(4-methoxyphenyl)-2-(methylsulfonyl)-6-(trifluoromethyl)pyrimidine]",< 100 µM
15,"CS(=O)(=O)c1nc(-c2ccccc2C#N)cc(C(F)(F)F)n1 [Compound 55, 2-(2-(methylsulfonyl)-6-(trifluoromethyl)pyrimidin-4-yl)benzonitrile]",1 to 20 µM
16,CS(=O)(=O)c1nc(-c2ccc(C#N)cc2)cc(C(F)(F)F)n1 [Compound 57],< 100 µM
17,"COC(=O)c1ccccc1-c1cc(C(F)(F)F)nc(S(C)(=O)=O)n1 [Compound 58, methyl 2-(2-(methylsulfonyl)-6-(trifluoromethyl)pyrimidin-4-yl)benzoate]",< 100 µM
18,"COC(=O)c1ccc(-c2cc(C(F)(F)F)nc(S(C)(=O)=O)n2)cc1 [Compound 61, methyl 4-(2-(methylsulfonyl)-6-(trifluoromethyl)pyrimidin-4-yl)benzoate]",< 100 µM
19,"CS(=O)(=O)c1nc(-c2ccccc2C(=O)O)cc(C(F)(F)F)n1 [Compound 63, 2-(2-(methylsulfonyl)-6-(trifluoromethyl)pyrimidin-4-yl)benzoic acid]",< 100 µM
20,"CS(=O)(=O)c1nc(-c2ccc(C(=O)O)cc2)cc(C(F)(F)F)n1 [Compound 64, 4-(2-(methylsulfonyl)-6-(trifluoromethyl)pyrimidin-4-yl)benzoic acid]",< 100 µM
21,"CS(=O)(=O)c1nc(-c2cccc(C(N)=O)c2)cc(C(F)(F)F)n1 [Compound 66, 3-(2-(methylsulfonyl)-6-(trifluoromethyl)pyrimidin-4-yl)benzamide]",1 to 10 µM
22,"CNC(=O)c1ccccc1-c1cc(C(F)(F)F)nc(S(C)(=O)=O)n1 [Compound 67, N-methyl-2-(2-(methylsulfonyl)-6-(trifluoromethyl)pyrimidin-4-yl)benzamide]",< 100 µM
23,"CNC(=O)c1ccc(-c2cc(C(F)(F)F)nc(S(C)(=O)=O)n2)cc1 [Compound 68, N-methyl-4-(2-(methylsulfonyl)-6-(trifluoromethyl)pyrimidin-4-yl)benzamide]",1 to 20 µM
24,"CN(C)C(=O)c1cccc(-c2cc(C(F)(F)F)nc(S(C)(=O)=O)n2)c1 [Compound 69, N,N-dimethyl-3-(2-(methylsulfonyl)-6-(trifluoromethyl)pyrimidin-4-yl)benzamide]",1 to 10 µM
25,"CS(=O)(=O)c1nc(-c2cccc(Cn3ccccc3=O)c2)cc(C(F)(F)F)n1 [Compound 70, 1-(3-(2-(methylsulfonyl)-6-(trifluoromethyl)pyrimidin-4-yl)benzyl) pyridin-2 (1H)-one]",1 to 10 µM
26,"CS(=O)(=O)c1nc(-c2cccc(Oc3ccccc3)c2)cc(C(F)(F)F)n1 [Compound 73, 2-(methylsulfonyl)-4-(3-phenoxyphenyl)-6-(trifluoromethyl)pyrimidine]",1 to 10 µM
27,"CS(=O)(=O)c1nc(-c2cccc3ccccc23)cc(C(F)(F)F)n1 [Compound 76, 2-(methylsulfonyl)-4-(naphthalen-1-yl)-6-(trifluoromethyl)pyrimidine]",1 to 20 µM
